{
  "source": "patent US20200397860A1",
  "about": "“SLIT AND BONE GROWTH MODULATION” (Cornell University, priority 2018, published 2020)",
  "key": {"[1]": {"tested_on": "murine ovariectomy (OVX) model of postmenopausal osteoporosis", "experiment": "Ovariectomy (OVX) induced bone loss, prophylactic model", "assay_type": "in vivo, mouse", "conditions": "L3 vertebrae", "experimental": "Micro-CT (μCT) analysis was conducted on a Scanco Medical μCT 35 system at the Citigroup Biomedical Imaging Core using the previously described parameters. (Shim et al. 2013). μCT analysis was performed by an investigator blinded to the genotypes of the animals under analysis.\nFor histomorphometry, mice were injected with calcein (25 mg/kg, Sigma), and undecalcified sections of the lumbar vertebrae were stained using von Kossa and TRAP as described by Fukuda et al. (2013). Static and dynamic histomorphometric analysis was performed with using the Osteomeasure Analysis System (Osteometrics) following standard nomenclature as described (Dempster et al. 2013). Bone volume/total volume (BV/TV), bone formation rate/bone surface (BFR/BS, μm^3 […] yr^−1), mineral apposition rate (MM, um Day^−1), osteoblast surface/bone surface (Ob.S/BS, %) and osteoclast number/bone perimeter (No. OC/Bpm) were analyzed.\nFor the prophylactic model, 12-week-old female mice (JAX) were anesthetized and bilaterally ovariectomized or sham operated. Ovariectomized mice were given twice weekly intravenous injections of 1 mg per kg body weight of SLITS or vehicle or daily subcutaneous (sc) injections of 80 ug/kg PTH (1-34) for 6 weeks starting 2 weeks after ovariectomy. […] All mice were then randomly assigned to one of four groups: Sham, OVX+vehicle, OVX+SLITS and OVX+PTH. Three days after the last injection, all of the mice were euthanized and subjected to bone analysis as described earlier."}, "[2]": {"tested_on": "bone marrow endothelial progenitor outgrowth cells (EPOCs)", "experiment": "Matrigel tube formation assay", "assay_type": "cell-based, mouse", "conditions": "EPOCs transduced with YAP shRNA", "experimental": "Mouse bone marrow derived late-stage endothelial progenitor outgrowth cells (EPOCs) were obtained from BioChain (7030031) and cultured in growth medium (BioChain Z7030035) as described previously (Xie et al. 2014). Endothelial cell migration assay was set up in Trans well-24 well plates with 8-um pore filters. Briefly, 1×10^5 cells/well after 1-hour serum starvation were seeded in the upper chamber, then incubated with conditioned medium from osteoblasts and control in the lower chambers for a further 3 h. The cells in the upper surface of each filter were removed with cotton swabs. The cells that migrated into the lower surface were fixed with 4% PFA for 30 min and then stained with crystal violet. The cell numbers were quantified by counting a centered microscope field per each filter (5 wells for each condition). Endothelial cell wound healing assays were conducted in 12-well plates precoated with gelatin (Stemcell Technologies). 3×10^5 cells/well were plated overnight and stimulated with a wound in the form of a single linear scratch made with a yellow pipette tip. After gently washing the well twice, cells were cultured in medium with SLIT3 or vehicle. At 6 and 12 hours after injury, cells were stained by 0.5% crystal violet and photographed. The width of the wound area was quantitatively evaluated using ImageJ (see website at rsb.info.uih.gov/ij/download.html). Endothelial cell proliferation assays were conducted in 96-well plates pre-coated with gelatin (Stemcell Technologies). EPOCs (3×10^4 cells/well) were seeded in the medium with a serial dilution of SLIT3 protein or vehicle in plates. At 0, 24, 48 hours after seeding, cells were incubated with 10-fold diluted Alamar Blue solution (Thermo Fisher) and the supernatant was evaluated with a spectrophotometer (Thermo) (5 wells for each condition). Endothelial cell tube formation assay was conducted in 96-well plates pre-coated with Matrigel (BD). After 1 h serum starvation, EPOCs (3×10^4 cells/well) were seeded in conditioned medium dilution or control medium on polymerized Matrigel in plates. Alter 5 hours incubation at 37° C., the number of tube branches each well was observed and quantified by counting four random fields per well with microscopy (5 wells for each condition)."}, "[3]": {"tested_on": "CD31^hiEMCN^hi endothelium", "experiment": "Flow cytometry of skeletal CD31hiEMCNhi endothelium in femurs after IV injection", "assay_type": "in vivo, mouse", "conditions": "8-week-old B6 mice, twice weekly IV 1 mg/kg, 21 days, femur", "experimental": "Femur and tibia were dissected from mutant mice and control groups after removing surrounding connective tissues. The metaphysis region and diaphysis regions of bone was crushed in Hanks Balanced Salt Solution (Life Technologies) containing 10 mM HOPES (pH 7.2) (CellGro) and enzymatically digested with 2.5 mg/mL Collagenase A (Roche) and 1 unit/mL Dispase II (Roche) for 15 minutes at 37° C. under gentle agitation. The resulting cell suspensions were filtered (40 μm), washed using PBS (pH 7.2) containing 0.5% BSA (Fraction V) and 2 mM EDTA. After washing, equal numbers of cells per mouse were blocked with Purified Rat Anti-Mouse CD16/CD32 (BD Biosciences) for 30 min on ice, then stained with APC-conjugated EMCN antibody (ebioscience 50-5851-80), PE-conjugated CD31 (ebioscience 12-0311-81). FITC-conjugated CD45 (Tonbo 35-0451), APC/Cy7-conjugated Ter119 (Biolegend 116223) and PerCP-Cy5.5-conjugated CD146 (BD Biosciences 562231) for 45 min on ice. After washing, cells were resuspended in PBS (pH 7.2) with 2 mM EDTA and 1 μg/mL 4-6,Diamidino-2-Phenylindole (DAPI) (live/dead exclusion) for analysis on an LSRII flow cytometer system (BD Biosciences) cytometer and analyzed using FlowJo software (TreeStar). Cell sorting was performed with a FACS Aria II SORP cell sorter (Becton Dickinson) at Weill Cornell Medical College, with exclusion of DAPI^+ cells and doublets. […]"}},
  "data": [
    {"substance": "PTH: parathyroid hormone PTH (1-34), daily subcutaneous injections, comparator in OVX model (SVSEIQLMHNLGKHLNSMERVEWLRKKLQDVHNF; Parathyroid hormone; UniProt P01270 32-65, looked up, fragment) [reference compound]", "values": [
      {"measurement": "endosteal CD31hiEMCNhi endothelium after OVX", "setting": "[1]", "result": "reversed the attenuation"},
      {"measurement": "endosteal bone formation", "setting": "[1]", "result": "rescued"}
    ]},
    {"substance": "FGF2: FGF2, positive control inducer of tube formation [reference compound]", "values": [
      {"measurement": "ability to induce tube formation after shRNA-mediated knockdown of YAP", "setting": "[2]", "result": "not"}
    ]},
    {"substance": "SLIT2: recombinant SLIT2 protein, SLIT family ligand", "values": [
      {"measurement": "levels of skeletal CD31hiEMCNhi endothelium in vivo", "setting": "[3]", "result": "increased formation"}
    ]}
  ]
}
